Experimental data reported in patent publication US11278682B2, “Device and method for aerosolized delivery of substance to a natural orifice of the body” (SIPNOSE LTD., priority 2014, dated 2022).
Read-outs that look alike come from different tables or passages of the source.

Tests used:
[1] = Brain absorption of insulin after SipNose nasal administration (quantitative ELISA); assay type: in vivo; conditions: rabbit; 10 U/Kg via SipNose nasal administration; 1 h, 2 h, 3 h post administration
Method: The substance in this experiment is Human Insulin (Lispro insulin, 5807 Da); the animal model is a rabbit. Administration was 10 U/Kg of Human Insulin via SipNose nasal administration. Brain concentrations were measured using insulin quantitative ELISA at 1 h, 2 h, and 3 h post administration.

[2] = Blood and brain absorption of insulin, SipNose nasal vs IV administration; assay type: in vivo, rabbit; conditions: rabbits, 0.5 U/kg
Method: In FIG. 76A-C, the efficacy of delivery of insulin to the brain is compared for the SipNose device vs. IV administration. The substance was Lispro insulin (5,807 Da) administered to rabbits. Four rabbits were used; all animals were given 0.5 U/kg of Human Insulin. Administration was via IV for rabbits 1 and 3 and via SipNose nasal administration for rabbits 2 and 4. Brain concentrations were measured using insulin quantitative ELISA.

patients = conditions: commercial use; cited from earlier work
[3] = Repeated Topiramate dosing: plasma and brain concentrations; assay type: in vivo; conditions: rat, 0.78 mg, rats
Method: (§1) The study was performed according to the parameters of Table 31, for group allocation, and Table 32, for the study time-line. […] This provided a total of 1.56 mg per day per animal. For the liquid nasal samples, the administration was performed IN via SipNose's dedicated device at doses of 78 μL, from 10 mg/ml stock, or orally, after dilution to a dose volume of 200 μL. Food consumption was monitored two days before study initiation and daily during the study. Three (3) animals per group were sacrificed 45 minutes after the first dose of the first day, and six animals per group were sacrificed after 6 consecutive days of dosing, via CO2 asphyxiation.
(§2) Perfusion was performed under anesthesia with Isoflurane, using saline, for further PK examination of compounds in the brain.
Animals were sacrificed 45 minutes after the first administration of Day 1 and the last administration of Day 6, following blood sampling of 400 μL, if required, as described below. Three (3) rats, sacrificed after the first dosing day, were perfused with saline for PK analysis of blood and brain. Animals sacrificed on the last day of the study ([…]) were divided into 2 groups: one animal in each cage was bled and perfused with saline, after which the brain was collected and frozen in liquid nitrogen for PK analysis. The second animal in the cage was sacrificed by CO2 asphyxiation and the nasal cavity (including the olfactory epithelium), nasopharynx, paranasal sinus, trachea, lungs, brain, heart and larynx were collected and fixed in 4% formaldehyde and Histopathological evaluation (H&E staining) was performed. Inflammatory status was evaluated. Slide preparation was followed by histopathological examination of the collected organs during scheduled termination and necropsy from all the animals. Tissues were trimmed, embedded in paraffin, sectioned at approximately five micron thickness and stained with Hematoxylin & Eosin (H&E).

rats [4] = test: Repeated Topiramate dosing: histopathological evaluation; assay type: in vivo, rat; conditions: all samples of all tissues examined, 6 days dosing
Method: as §1, §2
Animals were sacrificed 45 minutes after the first administration of Day 1 and the last administration of Day 6, following blood sampling of 400 μL, if required, as described below. Three (3) rats, sacrificed after the first dosing day, were perfused with saline for PK analysis of blood and brain. Animals sacrificed on the last day of the study (after one dose only) were divided into 2 groups: one animal in each cage was bled and perfused with saline, after which the brain was collected and frozen in liquid nitrogen for PK analysis. […] Inflammatory status was evaluated. […]

rats [5] = test: Repeated Topiramate dosing: body weight and food consumption; assay type: in vivo, rat
Text: The study investigated repeated intra-nasal delivery of Topiramate, using SipNose's novel device, in order to evaluate its effect on food consumption, body weight, and behavior and to measure the concentrations of the drug in the brain and plasma, in comparison to oral administration. Also, the safety of repeated dosing was examined.
The probability of appetite loss is a potential indicator for Topiramate. Food consumption was monitored during the experiment, and as the expectation was that food consumption will be reduced, care was taken in order to make sure it is not too dramatic or harmful to the animals.
A total of 38 rats were utilized. Thirty six (36) rats were divided into four groups of nine animals in each group. Two animals were used as the naïve, untreated group.
Topiramate was used in its original API form with no specific formulation. Topiramate was delivered to the nasal cavity either as a dry powder or as a solution of 10 mg/ml solubilized in Saline.
Application was by means of a SipNose device (FIG. 105) configured for use in the nasal cavities of rats. In order to alleviate the discomfort animal might endured during IN administration, Lidocaine was locally applied on the nasal area, prior to placement of the SipNose's device.
as §1
Body weight was recorded upon arrival, 2 days before study initiation and once a day thereafter.

rats [6] = conditions: cited from earlier work
[7] = rat, in vivo
Method: (§3) A total of 13 male Sprague-Dawley rats were utilized. The animals were divided into four treated groups of three rats and one group with one naïve control rat.
(§4) The following tests were performed: • After sacrifice, gross pathology was performed, examining the nasal cavity (both sides, including the olfactory epithelium), the nasopharynx, paranasal sinus, trachea, lungs, brain (in several areas including the olfactory bulb), heart and larynx. • A histopathological evaluation of all groups of animals was made. • Blood was collected and plasma prepared 10, 30 and 90 min after the first and second administration and at termination.
(§5) IN application was carried out using solution at a dose volume of 300 μl per naris or as a powder (in two formulations). In all cases the total dose per rat was 6 mg of Topiramate. Prior to application of the test material, lidocaine was applied locally to the outer area of the nostril in order to decrease the level of distress.
(§6) Blood samples were collected into Li-Heparin tubes on ice, at 10, 30 and 90 min post first and second dosing. A blood volume of approximately 300 μl was obtained at each time point.
(§7) Topiramate was administered to the relevant study groups twice, with a five hour interval between administrations.

Sprague-Dawley rats = test: Topiramate safety and toxicity study (food consumption, body weight, histopathology); assay type: in vivo, rat
Method: A study was performed to evaluate the safety and toxicity, including adverse effects, of Topiramate following intranasal administration via a SipNose device to Sprague-Dawley (SD) rats. A dose 8 times the therapeutic dose was administered in order to determine the maximal tolerated dose. Doses used in this study were chosen to assess the safety of the approved drug given via the nose with an embodiment of a sipNose device.
Animals were observed individually at least once during the first 30 minutes after dosing, with special attention during the first four hours and prior to termination. Observations included changes in skin and fur, eyes and mucous membranes, and also respiratory, circulatory, autonomic and central nervous systems, and somatomotor activity and behavior pattern.
Body weight was monitored one day after the animals' arrival, prior to administration of the test material and before termination.
Animals were sacrificed via carbon dioxide asphyxiation and gross pathology was performed, examining the major tissue and organ systems.
Lungs were evaluated in both right and left lobes. All tissues were trimmed into block cassettes and sent to L.E.M for slide preparation and staining.

in vivo = conditions: male, Sprague-Dawley, rat, 6 mg; for half-life: Half-life (estimated)
Method: as §3, §4, §5, §6, §7

[8] = SPECT-CT distribution of 99mTC-DTPA aerosol in nasal cavity and nasopharynx; assay type: in vivo; conditions: human volunteer, 300 microliters, air volume 20 ml
Method: The effects of air volume and air pressure on the distribution of 99mTC-DTPA aerosol in the nasal cavity and nasopharynx were examined using SPECT-CT for two human volunteers.
In both cases, the deposited material comprised 300 microliters of DTPA; 1.75 mc (milli Ciri) and the air volume was 20 ml. A pressure of 6 barg was used for the results shown in FIG. 31A, while a pressure of 4 barg was used for the results shown in FIG. 31B.

[9] = rat, in vivo; remark: listed apart in the source
Method: For most liquid drug formulations, the drugs are dissolved in, suspended in or mixed with water-based liquids. However, many of the cannabis derivatives that show promise as therapeutic agents, such as the cannabinoids, need to be dissolved in oil. Therefore, a study was done to investigate uptake to the brain of an oil-based formulation. For this study, Fluorescein was dissolved in oil and administered intranasally, via the SipNose device, to rats. Fluorescein was administered to the control animals intravenously.

Lispro Insulin: Human Insulin (Lispro insulin, 5807 Da)
delivery of insulin to the brain (brain concentration, ELISA) [1]: delivered to the brain with the SipNose device and can be specifically detected | distribution of insulin in parts of the brain ([2]; SipNose direct-nose-to-brain): Insulin in both anterior and posterior parts of the brain | efficiency of delivery to the brain compared to I/V ([2]; SipNose nasal vs IV): highly efficient when compared to I/V administration

CC1(C)O[C@@H]2[C@@H](CO[C@@]3(COS(N)(=O)=O)OC(C)(C)O[C@@H]23)O1 [Topiramate]
patients with side effects such as somnolence, fatigue and dizziness (patients): over 10% | concentration at 45 min ([3]; brain, other: IN (intranasal) via SipNose device, group 4M powder IN, read-out: Topiramate brain concentration following the 11th administration): 1030 ± 172 ng/mL | concentration at 45 min ([3]; plasma, other: IN (intranasal) via SipNose device, group 3M liquid IN, 45 minutes, read-out: Topiramate plasma concentration after the first administration): 1510 ± 505 ng/mL | concentration at 45 min ([3]; plasma, other: IN (intranasal) via SipNose device, group 4M powder IN, 45 minutes, read-out: Topiramate plasma concentration after the first administration): 4140 ± 597 ng/mL | concentration at 45 min ([3]; plasma, other: IN (intranasal) via SipNose device, group 4M powder IN, read-out: Topiramate plasma (blood) concentration following the 11th administration): 1980 ± 256 ng/mL | concentration at 45 min ([3]; plasma, po, group 2M liquid oral, 45 minutes, read-out: Topiramate plasma concentration after the first administration): 2070 ± 228 ng/mL | histopathological findings after repeated dosing (rats [4]): No major histopathological findings were observed | food consumption (rats [5]; Group 2M liquid Topiramate oral): increased food consumption | increase in body weight relative to all other treatment groups (rats [5]; Group 2M, end of treatment period (day 6)): 2 fold | increase in body weight during the treatment phase (rats [5]; Group 2M, liquid Topiramate oral, 0.78 mg twice a day, 6 days): approximately 17% | food consumption (rats [5]; Group 3M liquid Topiramate IN SipNose): reduced food consumption | food consumption (rats [5]; Group 4M dry powder Topiramate IN SipNose): reduced food consumption | increase in body weight during the treatment phase (rats [5]; the other treatment groups (IN via SipNose)): ~8% | time for which ED50 is stable after oral administration (rats [6]): 8 h | lower plasma value 10 minutes after second vs first administration ([7]; male, Sprague-Dawley, 10 min): 26% | plasma level 10 minutes after first administration, IN vs oral ([7]; male, Sprague-Dawley, 10 min): about twice the concentration found 10 minutes after oral administration | Half-life (estimated) ([7]; male, Sprague-Dawley, inhaled or intranasal, 6 mg): 5.07 h | higher plasma value 10 minutes after second vs first administration ([7]; male, Sprague-Dawley, po, 10 min): 84% | plasma levels 18 hours after the second administration [7]: dropped to pre-administration levels | Food consumption on Day 2, relative to naïve rats (Sprague-Dawley rats; rats treated IN with Topiramate liquid): 98% | Food consumption on Day 2, relative to naïve rats (Sprague-Dawley rats; rats treated by Topiramate powder IN): around 60% | Food consumption on Day 2, relative to naïve rats (Sprague-Dawley rats; rats treated orally with Topiramate): 91% | body weight change from study initiation to termination (Sprague-Dawley rats; rats, all groups): relatively minor | drug-related pathological changes (histology) (Sprague-Dawley rats; rats, any animal, any investigated tissue, 6 mg twice, oral or IN): No drug-related pathological changes were detected | half-life (in vivo): 0.75 h | half-life (in vivo; inhaled or intranasal): 4.32 h | AUC (in vivo; po, AUC (estimated)): 11800 ng·h/mL

O=C([O-])CN(CCN(CC(=O)[O-])CC(=O)[O-])CCN(CC(=O)[O-])CC(=O)[O-].[99Tc+4] [99mTC-DTPA]
distribution of aerosol (SPECT-CT) ([8]; pressure 4 barg): localized in the nasal cavity at the respiratory and olfactory epitheliums and also moved down into the Nasopharynx (upper dotted arrow) and into the GI tract | distribution of aerosol (SPECT-CT) ([8]; pressure 6 barg): localized in the nasal cavity at the respiratory and olfactory epitheliums (dashed arrow) and did not reach the Nasopharynx and did not enter the GI tract

O=C1OC2(c3ccc(O)cc3Oc3cc(O)ccc32)c2ccccc21 [Fluorescein]
distribution within the brain [9]: distributed throughout the brain, rather than being concentrated in the cerebellum | early deposition in the spinal cord [9]: considerably less early deposition | uptake to the brain vs I/V [9]: considerably more uptake to the brain
